Molecules are shown by their SMILES. Several values for one entry are separate records, joined by “and”; a condition that tells them apart may be missing. Equal entries are not always repeated.

Assay in all cases: Postemergence foliar-applied weed control, direct-seeded rice (greenhouse)
The test system of one test is CYPES. The test is classed as in vivo, Cyperus esculentus L. (yellow nutsedge). How it is done: (§1) Seeds or nutlets of the desired test plant species were planted in a soil matrix prepared by mixing aloam or sandy loam soil (e.g., 28.6 percent silt, 18.8 percent clay, and 52.6 percent sand, with a pH of about 5.8 and an organic matter content of about 1.8 percent) and calcareous grit in an 80 to 20 ratio. The soil matrix was contained in plastic pots with a volume of 1 quart and a surface area of 83.6 square centimeters (cm^2). […] The plants were grown for 8-22 days in a greenhouse with an approximate 14 hour (h) photoperiod which was maintained at about 29° C. during the day and 26° C. during the night. Nutrients (Peters Excel® 15-5-15 5-Ca 2-Mg and iron chelate) were applied in the irrigation solution as needed and water was added on a regular basis. Supplemental lighting was provided with overhead metal halide 1000-Watt lamps as necessary. The plants were employed for testing when they reached the first through fourth true leaf stage.
(§2) Treatments consisted of the acid or esters of 4-amino-3-chloro-5-fluoro-6-(4-chloro-2-fluoro-3-methoxy-phenyl)pyridine-2-carboxylic acid (Compound A), each formulated as an SC (suspension concentrate), and various fungicidal components alone and in combination. Forms of compound A were applied on an acid equivalent basis.
(§3) For treatments comprised of formulated compounds, measured amounts of compounds were placed individually in 25 mL glass vials and diluted in a volume of 1.25% volume per volume (v/v) Agri-Dex® crop oil concentrate to obtain 12× stock solutions. […] Application solutions were prepared by adding an appropriate amount of each stock solution (e.g., 1 mL) and diluted to the appropriate final concentrations with the addition of […] of an aqueous mixture of 1.25% (v/v) crop oil concentrate so that the final spray solutions contained 1.25+/−0.05% (v/v) crop oil concentrate.
(§4) For treatments comprised of technical compounds, weighed amounts can be placed individually in 25 mL glass vials and dissolved in a volume of 97:3 volume per volume (v/v) acetone/dimethyl sulfoxide (DMSO) to obtain 12× stock solutions. […] When technical materials are used, the concentrated stock solutions can be added to the spray solutions so that the final acetone and DMSO concentrations of the application solutions are 16.2% and 0.5%, respectively.
(§5) As required, additional water and/or 97:3 v/v acetone/DMSO was added to individual application solutions so that the final acetone and DMSO concentrations of the application solutions being compared were 8.1% and 0.25%, respectively
(§6) All stock solutions and applications solutions were visually inspected for compound compatibility prior to application. Spray solutions were applied to the plant material with an overhead Mandel track sprayer equipped with 8002E nozzles calibrated to deliver 187 L/ha over an application area of 0.503 square meters (m^2) at a spray height of 18 to 20 inches (46 to 50 cm) above average plant canopy height. Control plants were sprayed in the same manner with the solvent blank.
The treated plants and control plants were placed in a greenhouse as described above and watered by sub-irrigation to prevent wash-off of the test compounds. After approximately 3 weeks, the condition of the test plants as compared with that of the untreated plants was determined visually and scored on a scale of 0 to 100 percent where 0 corresponds to no injury or growth inhibition and 100 corresponds to complete kill. […]

The subject of another test is CYPIR. Type of test: in vivo, Cyperus iria L. (rice flatsedge). The conditions noted are these: 21 DAA. The protocol: as §1, §2, §3, §4, §5, §6
The treated plants and control plants were placed in a greenhouse as described above and watered by sub-irrigation to prevent wash-off of the test compounds. After approximately 3 weeks, the condition of the test plants as compared with that of the untreated plants was determined visually and scored on a scale of 0 to 100 percent where 0 corresponds to no injury or growth inhibition and 100 corresponds to complete kill.
Colby's equation was used to determine the herbicidal effects expected from the mixtures (Colby, S. R. Calculation of the synergistic and antagonistic response of herbicide combinations. Weeds 1967, 15, 20-22.).
The following equation was used to calculate the expected activity of mixtures containing two active ingredients, A and B: Expected=A+B−(A×B/100)

A further test relates to LEFCH. Type of test: in vivo, Leptochloa chinensis (L.) Nees (Chinese sprangletop).

As to `COc1c(Cl)ccc(-c2nc(C(=O)OCc3ccccc3)c(Cl)c(N)c2F)c1F` [Compound A Benzyl Ester], the “Visual Weed Control (%) - 21 DAA CYPES Obs” value in the test with CYPES (r26 ester 8 g ae/ha alone, r27-29 phthalide 100/200/300 g ai/ha alone, r30-32 ester 8 + 100/200/300) came to 10%. Moreover, the “Visual Weed Control (%)—21 DAA CYPES Obs” value with CYPES (r45 ester 8 g ae/ha alone, r46-48 kasugamycin 17.5/35/70 g ai/ha alone, r49-51 ester 8 + 17.5/35/70) worked out at 70%. In addition, the “Visual Weed Control (%) - 21 DAA CYPIR Obs” value in the test with CYPIR (r23-24 ester 16/32 g ae/ha alone, r25 pyroquilon 925 g ai/ha alone, r26-27 ester 16/32 + 925) is 85% and 99%; in the test with CYPIR (r26-27 ester 16/32 g ae/ha alone, r28-29 isoprothiolane 266/533 g ai/ha alone, r30-33 ester 16/32 at each of 266, 533), 85% and 99%. The “Visual Weed Control (%)—21 DAA CYPIR Obs” value in the test with CYPIR (r29-30 ester 8/16 g ae/ha alone, r31-33 kasugamycin 17.5/35/70 g ai/ha alone, r34-39 ester 8/16 at each of 17.5, 35, 70) is 50% and 70%; in the test with CYPIR (r45 ester 8 g ae/ha alone, r46-48 hexaconazole 25/50/100 g ai/ha alone, r49-51 ester 8 + 25/50/100), 35%. In addition, in the test on LEFCH (19 DAA, r9-11 ester 8/16/32 g ae/ha alone, r12-13 flutolanil 280/560 g ai/ha alone, r14-19 ester 8/16/32 at each of 280, 560), the “Visual Weed Control (%) - 19 DAA LEFCH Obs” value is 45% and 50%. Besides, the “Visual Weed Control (%)—21 DAA LEFCH Obs” value with LEFCH (r9-11 ester 8/16/32 g ae/ha alone, r12-14 kasugamycin 17.5/35/70 g ai/ha alone, r15-23 ester 8/16/32 at each of 17.5, 35, 70) is 40% and 65%; with LEFCH (r38-39 ester 8/16 g ae/ha alone, r40 isotianil 380 g ai/ha alone, r41-42 ester 8/16 + 380), 25% and 40%. Besides, the “Visual Weed Control (%) - 21 DAA LEFCH Obs” value in the test with LEFCH (r10-11 ester 16/32 g ae/ha alone, r12 mancozeb 840 g ai/ha alone, r13-14 ester 16/32 + 840) is 15% and 25%; with LEFCH (r10-12 ester 8/16/32 g ae/ha alone, r13-14 isoprothiolane 266/533 g ai/ha alone, r15-20 ester 8/16/32 at each of 266, 533), 50% and 60% and 70%; with LEFCH (r42-43 ester 16/32 g ae/ha alone, r44-46 difenoconazole 50/100/200 g ai/ha alone, r47-52 ester 16/32 at each of 50, 100, 200), 25% and 43%.
